Measurements: patent publication US10363230B2, “6-shogaol derivatives and activities thereof” (North Carolina Agricultural and Technical State University, priority 2017, dated 2019)
Where “and” joins values, the source holds several entries; their conditions need not be identical. Identical values can stand only once.

tested on: Nrf2; experiment: Nrf2 reporter activity by Tg(gstp1:GFP) fluorescence in transgenic zebrafish embryos; assay type: in vivo; details: olfactory epithelia, 24-hour treatment from 1 dpf to 2 dpf, 5 μM (FIG. 2 legends), ratio to DMSO control, mean ± SD, at least 10 embryos
Description: Zebrafish AB transgenic strains Tg(gstp1:GFP) were maintained in a Pentair Aquatic Ecosystem (Apopka, Fla., United States of America) fish housing unit with 14 h light/10 h dark cycle (see Tsujita, T., Li, L., Nakajima, H., Iwamoto, N., Nakajima-Takagi, Y., Ohashi, K., Kawakami, K., Kumagai, Y., Freeman, B. A., Yamamoto, M., and Kobayashi, M. (2011) “Nitro-fatty acids and cyclopentenone prostaglandins share strategies to activate the Keap1-Nrf2 system: a study using green fluorescent protein transgenic zebrafish.” Genes Cells 16, 46-57). The fish embryos were maintained at 28.5° C. in 0.3× Danieau's solution (19.3 mM NaCl, 0.23 mM KCl, 0.13 mM MgSO4, 0.2 mM Ca(NO3)2, 1.7 mM HEPES, pH 7.0) containing 30 μg/ml phenylthiourea (PTU) to inhibit pigmentation. Tg(gstp1:GFP) cross with AB wild-type strain fluorescence embryos were used for the experiment. Zebrafish embryos were washed, dechorionated and anaesthetized before observations, and fluorescence imaging for analysis.
Transgenic zebrafish embryos at 1 day-post-fertilization (dpf) were dechorionated and placed in Petri dishes containing different chemicals diluted in 0.3× Danieau's solution containing PTU. The chemical stock was dissolved in DMSO at 5 mM concentration.
An Olympus MVX10 Fluorescence Macroscope (Olympus, Center Valley, Pa., United States of America) equipped with a Hamamatsu C9300-221 high-speed digital CCD camera (Hamamatsu City, Japan) was used for fluorescence microscopy. Tg(gstp1:GFP) fluorescent embryos were anaesthetized in tricaine and imaged at 2 dpf. MetaMorph Basic software (Olympus, Center Valley, Pa., United States of America) was used for image acquisition and analysis.
The fluorescence intensity of the olfactory neural epithelia was quantitated using MetaMorph Basic software. In brief, GFP expression in the olfactory regions of Tg(gstp1:GFP) embryos treated with various chemicals was measured after 24-hour treatment from 1 dpf to 2 dpf. The GFP induction was detectable by fluorescence signal at the area of the olfactory epithelia in the anterior of the head region, the intensity was measured using an area of a circle of 60 pixel diameter of the fluorescence olfactory epithelia subtracted by a background non-fluorescence area next to the zebrafish embryo. Both the left and right olfactory epithelia were measured to give an average fluorescence value. The values are an average of measurements from at least 10 embryos.

SMILES	Ratio/CTL, Tg(gstp1:GFP) fluorescence signal (times higher than vehicle)
CCCCCC=CC(O)CCc1ccc(O)c(OC)c1 (stereo not shown) [Compound 4]	1.13 and 1.13 ± 0.21
CCCCC/C=C/C(=O)/C=C/c1cccc(C(F)(F)F)c1F [Compound 23]	1.63 and 1.63 ± 0.17
CCCCC/C=C/C(=O)/C=C/c1cc(O)c(O)c(OC)c1 [Compound 20]	1.26 and 1.26 ± 0.14
CCCCCCCCC/C=C/C(=O)CCc1ccc(O)c(OC)c1 [Compound 3, reference compound]	1.53 ± 0.53
CCCCC/C=C/C(=O)CCc1ccc(O)c(OC)c1 [Compound 1, [6]-shogaol, reference compound]	2.40 ± 0.54
CCCCCC(CC(O)CCc1ccc(O)c(OC)c1)SC (stereo not shown) [Compound 17]	0.72 ± 0.14
CCCCCCCC(=O)/C=C/c1ccc(O)c(OC)c1 [Compound 19]	3.29 and 3.29 ± 0.35
CCCCC/C=C/C(=O)/C=C/c1cccc(C(F)(F)F)c1 [Compound 22]	1.28 and 1.28 ± 0.10
CCCCCC(CC(=O)CCc1ccc(O)c(OC)c1)SCC(NC(C)=O)C(=O)O (stereo not shown) [Compound 7]	1.04 ± 0.05
CCCCC/C=C/C(=O)/C=C/c1cc(OC)c(O)c(C(F)(F)F)c1 [Compound 21]	2.18 and 2.18 ± 0.53
CCCCCC(CC(O)CCc1ccc(O)c(OC)c1)SCC(N)C(=O)O (stereo not shown) [Compound 15]	1.08 ± 0.65
CCCCCC(CC(O)CCc1ccc(O)c(OC)c1)SCC(NC(C)=O)C(=O)O (stereo not shown) [Compound 16]	0.78 ± 0.12
CCCCCC(CC(=O)CCc1ccc(O)c(OC)c1)OC (stereo not shown) [Compound 10]	0.96 ± 0.24
CCCCC/C=C/C(=O)/C=C/c1ccccc1C(F)(F)F [Compound 24]	1.55 and 1.55 ± 0.67
CCCCC[C@H](O)CC(=O)CCc1ccc(O)c(OC)c1 [Compound 11, [6]-gingerol, reference compound]	1.87 and 1.87 ± 0.51
CCCCCCCCC[C@H](O)CC(=O)CCc1ccc(O)c(OC)c1 [Compound 13, reference compound]	1.29 and 1.29 ± 0.40
CCCCCC(CC(=O)CCc1ccc(O)c(OC)c1)SC (stereo not shown) [Compound 8]	1.16 ± 0.47
CCCCCCC/C=C/C(=O)CCc1ccc(O)c(OC)c1 [Compound 2, reference compound]	1.67 ± 0.55
CCCCCC(CC(=O)CCc1ccc(O)c(OC)c1)SCC(N)C(=O)O (stereo not shown) [Compound 6]	1.06 ± 0.20
CCCCCCC[C@H](O)CC(=O)CCc1ccc(O)c(OC)c1 [Compound 12, reference compound]	1.65 and 1.65 ± 0.29
CCCCCCCC(=O)CCc1ccc(O)c(OC)c1 [Compound 5]	1.27 and 1.27 ± 0.29

same assay, conditions: olfactory epithelia, 24-hour treatment from 1 dpf to 2 dpf, 5 μM (FIG. 2 legends), ratio to DMSO control, mean ± SD, at least 10 embryos; listed as 6S

SMILES	Ratio/CTL, Tg(gstp1:GFP) fluorescence signal (times higher than vehicle)
CCCCC/C=C/C(=O)CCc1ccc(O)c(OC)c1 [Compound 1, [6]-shogaol, reference compound]	2.40

same assay, conditions: olfactory epithelia, 24-hour treatment from 1 dpf to 2 dpf, 5 μM (FIG. 2 legends), ratio to DMSO control, mean ± SD, at least 10 embryos; listed as 8S

SMILES	Ratio/CTL, Tg(gstp1:GFP) fluorescence signal (times higher than vehicle)
CCCCCCC/C=C/C(=O)CCc1ccc(O)c(OC)c1 [Compound 2, reference compound]	1.67

same assay, conditions: olfactory epithelia, 24-hour treatment from 1 dpf to 2 dpf, 5 μM (FIG. 2 legends), ratio to DMSO control, mean ± SD, at least 10 embryos; listed as 10S

SMILES	Ratio/CTL, Tg(gstp1:GFP) fluorescence signal (times higher than vehicle)
CCCCCCCCC/C=C/C(=O)CCc1ccc(O)c(OC)c1 [Compound 3, reference compound]	1.53

tested on: not listed separately; experiment: Cysteine conjugates in mouse urine after oral gavage (LC/MS); assay type: in vivo; details: oral gavage 200 mg/kg, urine collected in 24 h
Description: LC/MS analysis was carried out with a Thermo-Finnigan Spectra System, which consisted of an Accela high speed MS pump, an Accela refrigerated autosampler, and an LCQ Fleet ion trap mass detector (Thermo Electron, San Jose, Calif., United States of America) incorporated with an electrospray ionization (ESI) interface. A Gemini-NX C18 column (150 mm×4.6 mm i.d., 5 μm; Phenomenex, Torrance, Calif., United States of America) was used for separation at a flow rate of 0.3 mL/min. The column was eluted with 100% A (5% aqueous methanol with 0.2% formic acid) for 1 min, followed by linear increases in B (95% aqueous methanol with 0.2% formic acid) to 55% from 1 to 4 min, to 85% from 4 to 25 min, then to 100% B from 25 to 30 min, and then with 100% B from 30 to 35 min. The column was then re-equilibrated with 100% A for 5 min. The LC eluent was introduced into the ESI interface. The positive ion polarity mode was set for the ESI source with the voltage on the ESI interface maintained at approximately 4.6 kV. Nitrogen gas was used as the sheath gas and auxiliary gas. […] The mass range was measured from 100 to 800 m/z. […]
Enzymatic deconjugation of mouse urine was performed as described previously with slight modifications. […] The resulting suspension was centrifuged at 17,000 g for 5 min, and 10 μL of supernatant was analyzed directly by LC/MS.

SMILES	Cysteine conjugates (metabolites) detected in mouse urine
CCCCC/C=C/C(=O)/C=C/c1ccc(O)c(OC)c1 [Compound 18]	conjugate 35 was predominantly present

tested on: not listed separately; experiment: Biotransformation of xenobiotics in zebrafish embryos (LC/MS); assay type: in vivo; details: 5 μM in incubation medium, 8 hpf to 24 hpf
Description: Fifty zebrafish embryos at the 8 hour-post-fertilization (hpf) stage were incubated at 28.5° C. in 0.3× Danieau's solution (19.3 mM NaCl, 0.23 mM KCl, 0.13 mM MgSO4, 0.2 mM Ca(NO3)2, 1.7 mM HEPES, pH 7.0) with or without 5 μM 18 and 25-27, respectively. At 24 hpf, embryos were dechorionated manually and the chorions were carefully removed one by one from the culture medium. The zebrafish embryos were harvested and kept at −80° C. till analyzed by LC/MS.
200 μL Sodium acetate buffer solution (pH 5.0) was added to 50 zebrafish embryos. Samples were homogenized for 90 s by an Omni Bead Ruptor Homogenizer (Kennesaw, Ga., United States of America). 10 μL 10% ascorbic acid and 300 μL sodium acetate buffer were added to the homogenates. The mixture was incubated in the presence of β-glucuronidase (250 U) and sulfatase (3 U) at 37° C. for 45 min, and then 600 μL MeOH with 1% acetic acid was added. The resulting mixture was vortexed for 30 s and then centrifuged at 17000 g for 10 min. The supernatant was removed and evaporated under a gentle stream of nitrogen. The residue was reconstituted in 150 μL 90% MeOH with 0.2% acetic acid (AA), and 10 μL was analyzed directly by LC/MS.
LC/MS analysis was carried out with a Thermo-Finnigan Spectra System, which consisted of an Accela high speed MS pump, an Accela refrigerated autosampler, and an LCQ Fleet ion trap mass detector (Thermo Electron, San Jose, Calif., United States of America) incorporated with an electrospray ionization (ESI) interface. A Gemini-NX C18 column (150 mm×4.6 mm i.d., 5 μm; Phenomenex, Torrance, Calif., United States of America) was used for separation at a flow rate of 0.3 mL/min. The column was eluted with 100% A (5% aqueous methanol with 0.2% formic acid) for 1 min, followed by linear increases in B (95% aqueous methanol with 0.2% formic acid) to 55% from 1 to 4 min, to 85% from 4 to 25 min, then to 100% B from 25 to 30 min, and then with 100% B from 30 to 35 min. The column was then re-equilibrated with 100% A for 5 min. The LC eluent was introduced into the ESI interface. The positive ion polarity mode was set for the ESI source with the voltage on the ESI interface maintained at approximately 4.6 kV. Nitrogen gas was used as the sheath gas and auxiliary gas. Optimized source parameters, including capillary temperature (260° C.), sheath gas flow rate (31 arbitrary units), auxiliary gas flow rate (16 units), tube lens (34 V), and capillary voltage 9 V, were tuned using authentic samples. The collision-induced dissociation (CID) was conducted with an isolation width 2 Da and normalized collision energy of 35 for MS^2. The mass range was measured from 100 to 800 m/z. Data acquisition was performed with Xcalibur version 2.0 (Thermo Electron, San Jose, Calif., United States of America).

SMILES	Cysteine conjugates (metabolites) detected in zebrafish embryos
CCCCCCCC(=O)CCc1ccc(O)c(O)c1 [Compound 25]	conjugates 37 and 37b were exclusively identified
CCCCC/C=C/C(=O)/C=C/c1ccc(O)c(O)c1 [Compound 26]	Three conjugates 37, 37b, and 38
CCCCC/C=C/C(=O)/C=C/c1ccc(O)c(OC)c1 [Compound 18]	conjugate 35 was predominantly present
